Patent US20050004211A1, “Pharmaceutical compositions comprising aryl-substituted acyclic enediyne compounds” (KAOHSIUNG MEDICAL UNIVERSITY, priority 2003, published 2005)
Marks after values point to notes of the source that are not given here.

Tests used:
UACC-82 = settings: read-out: GI50 UACC-82; Table 4
KM12 = settings: Table 4; for CC50: read-out: LC50 KM12
NCI-H522 = settings: Table 4; for CC50: read-out: LC50 NCI-H522; for GI50: read-out: GI50 NCI-H522
Melanoma cell lines = assay: NCI full panel screen, panel average; settings: Homo sapiens, read-out: cytotoxicity, average of all Melanoma cell lines
NCI/ADR-RES = settings: Table 4; for GI50: read-out: GI50 NCI/ADR-RES; for CC50: read-out: LC50 NCI/ADR-RES
IGROV1 = settings: Table 4; for GI50: read-out: GI50 IGROV1; for CC50: read-out: LC50 IGROV1
SF-295 = settings: Table 4; for GI50: read-out: GI50 SF-295; for CC50: read-out: LC50 SF-295
SR = assay: NCI full panel screen; settings: Table 4; for CC50: read-out: LC50 SR; for GI50: read-out: GI50 SR
CNS Cancer cell lines = assay: NCI full panel screen, panel average; settings: Homo sapiens, read-out: cytotoxicity, average of all CNS Cancer cell lines
[1] = test system: Ovarian Cancer cell lines; assay: NCI full panel screen, panel average; settings: Homo sapiens, read-out: cytotoxicity, average of all Ovarian Cancer cell lines
[2] = test system: Prostate Cancer cell lines; assay: NCI full panel screen, panel average; settings: Homo sapiens, read-out: cytotoxicity, average of all Prostate Cancer cell lines
DU-145 = assay: NCI full panel screen; settings: Table 4; for CC50: read-out: LC50 DU-145; for GI50: read-out: GI50 DU-145
Leukemia cell lines = assay: NCI full panel screen, panel average; settings: Homo sapiens, read-out: cytotoxicity, average of all Leukemia cell lines
OVCAR-3 = assay: NCI full panel screen; settings: Homo sapiens; for GI50: OVCAR-3, read-out: GI50 OVCAR-3; for CC50: OVCAR-3, read-out: LC50 OVCAR-3
[3] = test system: Non-small cell Lung cancer cell NCI-H460; assay: Preliminary cytotoxicity test; assay type: cell-based, human
[4] = test system: Non-Small Cell Lung Cancer cell lines; assay: NCI full panel screen, panel average; settings: Homo sapiens, read-out: cytotoxicity, average of all Non-Small Cell Lung Cancer cell lines
CAKI-1 = settings: Table 4; for GI50: read-out: GI50 CAKI-1; for CC50: read-out: LC50 CAKI-1
SK-MEL-5 = settings: Table 4; for GI50: read-out: GI50 SK-MEL-5; for CC50: read-out: LC50 SK-MEL-5
NCI-H23 = settings: read-out: GI50 NCI-H23; Table 4
K-562 = settings: Table 4; for CC50: read-out: LC50 K-562; for GI50: read-out: GI50 K-562
Colon Cancer cell lines = assay: NCI full panel screen, panel average; settings: Homo sapiens, read-out: cytotoxicity, average of all Colon Cancer cell lines
CNS cancer cell SF-268 = assay: Preliminary cytotoxicity test; assay type: cell-based, human
Breast cancer cell MCF-7 = assay: Preliminary cytotoxicity test; assay type: cell-based, human
Renal Cancer cell lines = assay: NCI full panel screen, panel average; settings: Homo sapiens, read-out: cytotoxicity, average of all Renal Cancer cell lines
Breast Cancer cell lines = assay: NCI full panel screen, panel average; settings: Homo sapiens, read-out: cytotoxicity, average of all Breast Cancer cell lines
PC-3 = settings: read-out: GI50 PC-3; Table 4
U251 = settings: Table 4; for CC50: read-out: LC50 U251; for GI50: read-out: GI50 U251
SN12C = settings: read-out: GI50 SN12C; Table 4
SW-620 = settings: Table 4; for GI50: read-out: GI50 SW-620; for CC50: read-out: LC50 SW-620
MDA-MB-435 = settings: read-out: GI50 MDA-MB-435; Table 4

N#Cc1ccccc1C#CC=CC#Cc1ccccn1 [Compound 27, 2-(6-(2-pyridinyl)-3-hexen-1,5-diynyl)benzonitrile]
GI50 (UACC-82): 15.3 µM | CC50 (KM12): 80.4 µM | CC50 (NCI-H522): 84.7 µM | IC50 (Melanoma cell lines): 14.2 µM | GI50 (NCI/ADR-RES): 16.5 µM | CC50 (NCI/ADR-RES): 71 µM | GI50 (IGROV1): 17 µM | CC50 (IGROV1): 79.1 µM | GI50 (SF-295): 20.1 µM | CC50 (SF-295): > 100 µM | CC50 (SR): > 100 µM | IC50 (CNS Cancer cell lines): 20.9 µM | IC50 [1]: 27.3 µM | IC50 [2]: 21.2 µM | CC50 (DU-145): > 100 µM | IC50 (Leukemia cell lines): 12.8 µM | GI50 (OVCAR-3): 4.26 µM | CC50 (OVCAR-3): 56.9 µM | Growth percentage, Non-small cell Lung cancer cell NCI-H460 [3]: 23* % | IC50 [4]: 19.6 µM | GI50 (CAKI-1): 21.8 µM | CC50 (CAKI-1): > 100 µM | GI50 (SK-MEL-5): 2.99 µM | CC50 (SK-MEL-5): 41.6 µM | GI50 (NCI-H23): 12.3 µM | CC50 (K-562): > 100 µM | IC50 (Colon Cancer cell lines): 16.3 µM | Growth percentage, CNS cancer cell SF-268 (CNS cancer cell SF-268): 83% | Growth percentage, Breast cancer cell MCF-7 (Breast cancer cell MCF-7): 49% | IC50 (Renal Cancer cell lines): 21.7 µM | IC50 (Breast Cancer cell lines): 14.3 µM | GI50 (PC-3): 13.7 µM | CC50 (U251): 79 µM | GI50 (SN12C): 20.4 µM | GI50 (SW-620): 12.6 µM | CC50 (SW-620): 80.5 µM

N#Cc1ccccc1C#CC=CC#Cc1cnccn1 [Compound 30, 2-(6-(2-pyrazinyl)-3-hexen-1,5-diynyl)benzonitrile]
GI50 (KM12; read-out: GI50 KM12): 4.39 µM | CC50 (KM12): > 100 µM | GI50 (MDA-MB-435): 5.3 µM | GI50 (NCI-H522): 14.8 µM | CC50 (NCI-H522): > 100 µM | IC50 (Melanoma cell lines): 18.7 µM | GI50 (NCI/ADR-RES): 15.9 µM | CC50 (NCI/ADR-RES): > 100 µM | GI50 (IGROV1): 46.2 µM | CC50 (IGROV1): > 100 µM | GI50 (SF-295): 17.6 µM | CC50 (SF-295): > 100 µM | GI50 (SR): 4.3 µM | CC50 (SR): > 100 µM | IC50 (CNS Cancer cell lines): 32.2 µM | IC50 [1]: 38.1 µM | IC50 [2]: 33.6 µM | GI50 (DU-145): 36.3 µM | CC50 (DU-145): > 100 µM | IC50 (Leukemia cell lines): 5.05 µM | GI50 (OVCAR-3): 16.6 µM | CC50 (OVCAR-3): > 100 µM | Growth percentage, Non-small cell Lung cancer cell NCI-H460 [3]: 8* % | IC50 [4]: 11.8 µM | GI50 (CAKI-1): 21.6 µM | CC50 (CAKI-1): > 100 µM | GI50 (SK-MEL-5): 19.6 µM | CC50 (SK-MEL-5): > 100 µM | GI50 (NCI-H23): 15.9 µM | GI50 (K-562): 4.88 µM | CC50 (K-562): > 100 µM | IC50 (Colon Cancer cell lines): 7.54 µM | Growth percentage, CNS cancer cell SF-268 (CNS cancer cell SF-268): 84% | Growth percentage, Breast cancer cell MCF-7 (Breast cancer cell MCF-7): 73% | IC50 (Renal Cancer cell lines): 27 µM | IC50 (Breast Cancer cell lines): 33.3 µM | GI50 (PC-3): 30.9 µM | GI50 (U251): 36.1 µM | CC50 (U251): > 100 µM | GI50 (SN12C): 22.6 µM | GI50 (SW-620): 6.98 µM | CC50 (SW-620): > 100 µM

N#Cc1ccccc1C#CC=CC#Cc1ccccc1N [Compound 32, 2-[6-(o-anilinyl)-3-hexen-1,5-diynyl]benzonitrile]
GI50 (UACC-82): 0.37 µM | CC50 (KM12): > 100 µM | GI50 (MDA-MB-435): 0.11 µM | GI50 (NCI-H522): 0.3 µM | CC50 (NCI-H522): 8.62 µM | IC50 (Melanoma cell lines): 0.77 µM | GI50 (NCI/ADR-RES): 0.37 µM | CC50 (NCI/ADR-RES): > 100 µM | GI50 (IGROV1): 0.27 µM | CC50 (IGROV1): > 100 µM | GI50 (SF-295): 0.24 µM | CC50 (SF-295): 12.4 µM | GI50 (SR): 0.25 µM | CC50 (SR): > 100 µM | IC50 (CNS Cancer cell lines): 9.44 µM | IC50 [1]: 1.55 µM | IC50 [2]: 3.13 µM | GI50 (DU-145): 3.48 µM | CC50 (DU-145): > 100 µM | IC50 (Leukemia cell lines): 0.43 µM | GI50 (OVCAR-3): 0.17 µM | CC50 (OVCAR-3): 98.4 µM | Growth percentage, Non-small cell Lung cancer cell NCI-H460 [3]: 8* % | IC50 [4]: 1.7 µM | GI50 (CAKI-1): 0.13 µM | CC50 (CAKI-1): 35.9 µM | GI50 (SK-MEL-5): 0.44 µM | CC50 (SK-MEL-5): 33.1 µM | GI50 (NCI-H23): 0.8 µM | GI50 (K-562): 0.48 µM | CC50 (K-562): > 100 µM | IC50 (Colon Cancer cell lines): 0.47 µM | Growth percentage, CNS cancer cell SF-268 (CNS cancer cell SF-268): 27* % | Growth percentage, Breast cancer cell MCF-7 (Breast cancer cell MCF-7): 36% | IC50 (Renal Cancer cell lines): 0.66 µM | IC50 (Breast Cancer cell lines): 2 µM | GI50 (PC-3): 2.78 µM | GI50 (U251): 0.43 µM | CC50 (U251): > 100 µM | GI50 (SN12C): 0.41 µM | GI50 (SW-620): 0.39 µM | CC50 (SW-620): > 100 µM
